Results published in patent US20070184102A1, “LATEX OR PSEUDOLATEX COMPOSITIONS, COATINGS AND COATING PROCESSES” (priority 2006, published 2007).
Like-named read-outs stand apart in the source and are kept apart here.

Tests used:
[1] = Assessment of cast mixed films (appearance, transparency, inhomogeneities, cracks, brittleness or flexibility); assay type: physicochemical; settings: films cast on Teflon, cured 24 hours at 60° C.
Method: (§1) Aquacoat® ECD was plasticized by stirring with triethyl citrate for 24 hours prior to addition of permeation enhancing agent. The dispersion stability was checked by optical microscopy for aggregation, coagulation or flocculation. Films were cast on Teflon® and cured for 24 hours at 60° C. The cast films were assessed in terms of appearance, transparency, inhomogeneities, or cracks and mechanical properties (semi-quantitative brittleness or flexibility).

[2] = Method: as §1
[3] = not told, pH 7.4
[4] = 10 to 30% w/w with respect to Aquacoat ECD solids, Aquacoat ECD plasticized with 25% w/w triethyl citrate

Row | Compatibility with / destabilisation of Aquacoat ECD dispersion [2] | Molecule | Properties of cast mixed films with Aquacoat ECD [1] | further results
1 | very viscous destabilised | Microcrystalline cellulose-carrageenan [LustreClear® LC103] | – | –
2 | viscous stable dispersions | Kappa carrageenan [Gelcarin® GP911] | – | –
3 | compatible in dispersion | Polyvinyl alcohol-polyethylene glycol graft copolymer [Kollicoat® IR] | – | Stability of the aqueous ethylcellulose coating dispersions in presence of the additive [2]: did not affect; Effect on water permeability (diffusion coefficient of water) of Aquacoat ECD-based films [3]: significantly increased
4 | compatible | Polyvinyl acetate [Kollicoat® SR 30 D] | – | –
5 | – | [Cl-].[Na+] [Sodium chloride, Sodium Chloride, reference compound] | inhomogenous films, with recrystallisation and cracking | Compatibility with / destabilisation of Aquacoat ECD dispersion [2, 4]: destabilized
6 | destabilized | Sodium Carboxymethylcellulose [reference compound] | – | –
7 | compatible | OC[C@H]1O[C@@](CO)(O[C@H]2O[C@H](CO)[C@@H](O)[C@H](O)[C@H]2O)[C@@H](O)[C@@H]1O [Sucrose] | good films | –
8 | compatible | Starch | – | –
9 | – | O=P([O-])([O-])O.[Na+].[Na+] [Disodium Hydrogen Phosphate] | inhomogenous films | Compatibility with / destabilisation of Aquacoat ECD dispersion [2, 4]: compatible
10 | viscous stable dispersions | Lambda carrageenan [Viscarin® GP209] | – | Stability of the aqueous ethylcellulose coating dispersions in presence of the additive [2]: stable
11 | compatible | OC[C@H]1O[C@@H](O[C@H]2[C@H](O)[C@@H](O)C(O)O[C@@H]2CO)[C@H](O)[C@@H](O)[C@H]1O (stereo partly drawn) [lactose, Lactose] | good films | –
12 | not destabilized | Iota carrageenan [Gelcarin® GP379] | – | –
13 | destabilized | Hydroxypropylmethylcellulose [reference compound] | – | –

Row | Molecule | Compatibility with / destabilisation of Aquacoat ECD dispersion [2] | Properties of cast mixed films with Aquacoat ECD [1] | further results
14 | OC[C@@H](O)[C@@H](O)[C@H](O)[C@H](O)CO [mannitol, Mannitol] | compatible | good films | –
15 | OC[C@@H](O)[C@@H](O)[C@H](O)[C@@H](O)CO [sorbitol, Sorbitol] | compatible | good films | –
